Experimental data taken from PubChem BioAssay (NCI).
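Exposure lasted 48 hours, with cells grown in 96-well plates and compounds tested at five concentrations. TGI denotes the concentration required for complete inhibition of growth.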

Tests used:
Assay in all cases: inhibition of tumour cell growth, NCI panel, 48 h
A498 renal = tested on: A498 renal
A549 NSCLC = tested on: A549 NSCLC
ACHN renal = tested on: ACHN renal
BT-549 breast = tested on: BT-549 breast
CAKI-1 renal = tested on: CAKI-1 renal
CCRF-CEM leukemia = tested on: CCRF-CEM leukemia
COLO 205 colon = tested on: COLO 205 colon
DU-145 prostate = tested on: DU-145 prostate
EKVX NSCLC = tested on: EKVX NSCLC
HCC-2998 colon = tested on: HCC-2998 colon
HCT-116 colon = tested on: HCT-116 colon
HCT-15 colon = tested on: HCT-15 colon
HL-60(TB) leukemia = tested on: HL-60(TB) leukemia
HOP-62 NSCLC = tested on: HOP-62 NSCLC
HOP-92 NSCLC = tested on: HOP-92 NSCLC
HS 578T breast = tested on: HS 578T breast
HT29 colon = tested on: HT29 colon
IGROV1 ovarian = tested on: IGROV1 ovarian
K-562 leukemia = tested on: K-562 leukemia
KM12 colon = tested on: KM12 colon
LOX IMVI melanoma = tested on: LOX IMVI melanoma
M14 melanoma = tested on: M14 melanoma
MALME-3M melanoma = tested on: MALME-3M melanoma
MCF7 breast = tested on: MCF7 breast
MDA-MB-231 breast = tested on: MDA-MB-231 breast
MDA-MB-435 = tested on: MDA-MB-435
MDA-N = tested on: MDA-N
MOLT-4 leukemia = tested on: MOLT-4 leukemia
NCI-H23 lung = tested on: NCI-H23 lung
NCI-H460 lung = tested on: NCI-H460 lung
NCI-H522 lung = tested on: NCI-H522 lung
NCI/ADR-RES ovarian = tested on: NCI/ADR-RES ovarian
OVCAR-3 ovarian = tested on: OVCAR-3 ovarian
OVCAR-4 ovarian = tested on: OVCAR-4 ovarian
OVCAR-5 ovarian = tested on: OVCAR-5 ovarian
OVCAR-8 ovarian = tested on: OVCAR-8 ovarian
PC-3 prostate = tested on: PC-3 prostate
RPMI-8226 leukemia = tested on: RPMI-8226 leukemia
RXF 393 renal = tested on: RXF 393 renal
SF-268 CNS = tested on: SF-268 CNS
SF-295 CNS = tested on: SF-295 CNS
SF-539 CNS = tested on: SF-539 CNS
SK-MEL-2 melanoma = tested on: SK-MEL-2 melanoma
SK-MEL-28 melanoma = tested on: SK-MEL-28 melanoma
SK-MEL-5 melanoma = tested on: SK-MEL-5 melanoma
SK-OV-3 ovarian = tested on: SK-OV-3 ovarian
SN12C renal = tested on: SN12C renal
SNB-19 CNS = tested on: SNB-19 CNS
SNB-75 CNS = tested on: SNB-75 CNS
SW-620 colon = tested on: SW-620 colon
T-47D breast = tested on: T-47D breast
TK-10 renal = tested on: TK-10 renal
U251 CNS = tested on: U251 CNS
UACC-257 melanoma = tested on: UACC-257 melanoma
UACC-62 melanoma = tested on: UACC-62 melanoma
UO-31 renal = tested on: UO-31 renal
786-0 renal = tested on: 786-0 renal
NCI-H226 lung = tested on: NCI-H226 lung

CC1CC(Br)C(=O)O1 (configuration not stated)
TGI (A498 renal): > 100 µM | TGI (A549 NSCLC): > 100 µM | TGI (ACHN renal): > 100 µM | TGI (BT-549 breast): > 100 µM | TGI (CAKI-1 renal): > 100 µM | TGI (CCRF-CEM leukemia): > 100 µM | TGI (COLO 205 colon): > 100 µM | TGI (DU-145 prostate): > 100 µM | TGI (EKVX NSCLC): > 100 µM | TGI (HCC-2998 colon): > 100 µM | TGI (HCT-116 colon): > 100 µM | TGI (HCT-15 colon): > 100 µM | TGI (HL-60(TB) leukemia): > 100 µM | TGI (HOP-62 NSCLC): > 100 µM | TGI (HOP-92 NSCLC): > 100 µM | TGI (HS 578T breast): > 100 µM | TGI (HT29 colon): > 100 µM | TGI (IGROV1 ovarian): > 100 µM | TGI (K-562 leukemia): > 100 µM | TGI (KM12 colon): > 100 µM | TGI (LOX IMVI melanoma): > 100 µM | TGI (M14 melanoma): > 100 µM | TGI (MALME-3M melanoma): > 100 µM | TGI (MCF7 breast): > 100 µM | TGI (MDA-MB-231 breast): > 100 µM | TGI (MDA-MB-435): > 100 µM | TGI (MDA-N): > 100 µM | TGI (MOLT-4 leukemia): > 100 µM | TGI (NCI-H23 lung): > 100 µM | TGI (NCI-H460 lung): > 100 µM | TGI (NCI-H522 lung): > 100 µM | TGI (NCI/ADR-RES ovarian): > 100 µM | TGI (OVCAR-3 ovarian): > 100 µM | TGI (OVCAR-4 ovarian): > 100 µM | TGI (OVCAR-5 ovarian): > 100 µM | TGI (OVCAR-8 ovarian): > 100 µM | TGI (PC-3 prostate): > 100 µM | TGI (RPMI-8226 leukemia): > 100 µM | TGI (RXF 393 renal): > 100 µM | TGI (SF-268 CNS): > 100 µM | TGI (SF-295 CNS): > 100 µM | TGI (SF-539 CNS): > 100 µM | TGI (SK-MEL-2 melanoma): > 100 µM | TGI (SK-MEL-28 melanoma): > 100 µM | TGI (SK-MEL-5 melanoma): > 100 µM | TGI (SK-OV-3 ovarian): > 100 µM | TGI (SN12C renal): > 100 µM | TGI (SNB-19 CNS): > 100 µM | TGI (SNB-75 CNS): > 100 µM | TGI (SW-620 colon): > 100 µM | TGI (T-47D breast): > 100 µM | TGI (TK-10 renal): > 100 µM | TGI (U251 CNS): > 100 µM | TGI (UACC-257 melanoma): > 100 µM | TGI (UACC-62 melanoma): > 100 µM | TGI (UO-31 renal): > 100 µM

COc1cc2c(cc1O)C1CC(CC3CCCCN31)OC(=O)/C=C\c1ccc(O)c-2c1 (configuration not stated)
TGI (786-0 renal): > 100 µM | TGI (A498 renal): 30.6 µM | TGI (A549 NSCLC): > 100 µM | TGI (ACHN renal): > 100 µM | TGI (BT-549 breast): 67.5 µM | TGI (CAKI-1 renal): 66.4 µM | TGI (CCRF-CEM leukemia): 90.5 µM | TGI (COLO 205 colon): 83.1 µM | TGI (DU-145 prostate): 89.6 µM | TGI (EKVX NSCLC): > 100 µM | TGI (HCC-2998 colon): 36 µM | TGI (HCT-116 colon): > 100 µM | TGI (HCT-15 colon): > 100 µM | TGI (HL-60(TB) leukemia): 58.3 µM | TGI (HOP-92 NSCLC): 97.9 µM | TGI (HS 578T breast): 57.5 µM | TGI (HT29 colon): 50.4 µM | TGI (IGROV1 ovarian): > 100 µM | TGI (K-562 leukemia): > 100 µM | TGI (KM12 colon): 34.8 µM | TGI (LOX IMVI melanoma): 32.3 µM | TGI (M14 melanoma): 46.6 µM | TGI (MALME-3M melanoma): 40.2 µM | TGI (MCF7 breast): 53.2 µM | TGI (MDA-MB-231 breast): 64.8 µM | TGI (MDA-MB-435): 50.8 µM | TGI (MDA-N): > 100 µM | TGI (MOLT-4 leukemia): 60.2 µM | TGI (NCI-H226 lung): > 100 µM | TGI (NCI-H23 lung): > 100 µM | TGI (NCI-H460 lung): > 100 µM | TGI (NCI-H522 lung): 65 µM | TGI (NCI/ADR-RES ovarian): 75.7 µM | TGI (OVCAR-3 ovarian): 62 µM | TGI (OVCAR-4 ovarian): > 100 µM | TGI (OVCAR-5 ovarian): > 100 µM | TGI (OVCAR-8 ovarian): 54.2 µM | TGI (PC-3 prostate): 99.5 µM | TGI (RPMI-8226 leukemia): 89.8 µM | TGI (SF-268 CNS): 72.3 µM | TGI (SF-295 CNS): 29.1 µM | TGI (SF-539 CNS): 34.6 µM | TGI (SK-MEL-2 melanoma): 72.1 µM | TGI (SK-MEL-28 melanoma): 85.2 µM | TGI (SK-MEL-5 melanoma): 31.4 µM | TGI (SK-OV-3 ovarian): 96.7 µM | TGI (SN12C renal): > 100 µM | TGI (SNB-19 CNS): > 100 µM | TGI (SNB-75 CNS): 34.2 µM | TGI (SW-620 colon): > 100 µM | TGI (T-47D breast): 45.7 µM | TGI (TK-10 renal): 95.8 µM | TGI (U251 CNS): > 100 µM | TGI (UACC-257 melanoma): 39.7 µM | TGI (UACC-62 melanoma): 45.2 µM | TGI (UO-31 renal): 65 µM
